Data reported in patent US20210161918A1, “TIGECYCLINE FOR TOPICAL TREATMENT OF ROOT CANAL SPACE” (THE UNIVERSITY OF NORTH CAROLINA AT CHAPEL HILL, priority 2018, published 2021).
Marks after values point to notes of the source that are not given here.

How the values were obtained:
[1] = tested on: Enterococcus faecalis (ATCC 4083), Streptococcus intermedius (ATCC 31412), Fusobacterium nucleatum (ATCC 49256), Porphyromonas gingivalis (ATCC 33277); experiment: MIC and MBC by E-test; assay type: cell-based
Experimental: Four common endodontic pathogens were selected for the study: Enterococcus faecalis (ATCC 4083), Streptococcus intermedius (ATCC 31412), Fusobacterium nucleatum (ATCC 49256), and Porphyromonas gingivalis (ATCC 33277). […] Then, each microorganism was cultured in their recommended broth as follow; brain heart infusion (BHI) broth for […], Todd Hewitt broth for S. intermedius, chopped meat for F. nucleatum, and tryptic soy broth supplemented with hemin and vitamin K for P. gingivalis. […] One-way analysis of variance (ANOVA), followed by the Tukey's HSD (with p<0.05) was used for the four microorganisms to compare: A) the MICs and MBCs among tested antibiotics, B) the difference between baseline CFUs and post-treatment CFUs for different antibiotics/scaffold formulations and, C) the changes in color among the groups.

[2] = tested on: polymicrobial biofilm of E. faecalis, S. intermedius, F. nucleatum and P. gingivalis in root canals; experiment: Post-treatment CFUs in ex vivo root canals inoculated with bacterial mixture (3-week biofilm), dressed with antibiotics/hydrogel scaffolds; assay type: cell-based; settings: for samples with bacterial growth: n=15 per group; for Log10 CFUs: 1 week dressing
Source text: (§1) One hundred and twenty intact single rooted permanent human teeth were collected for the study. All teeth were autoclaved, then access cavities were prepeared and the canal instrumented to size 40/0.04, with saline irrigation. Teeth were autoclaved again to ensure absence of bacteria prior to bacterial inoculation. The root canals were then inoculated with the bacterial mixture, using syringe delivery, with the 30-gauge needle close to the working length. Access cavities were then sealed with a sterile sponge and Cavit (3M ESPE). All teeth were then incubated in the anaerobic chamber. The suspensions were replenished weekly for 3 weeks to allow for biofilm formation and maturation (14).

[3] = Crown color change measurement (tooth discoloration, CIE L*a*b*); design: species or system human
Source text: as §1
Crown color was measured as described previously (16). All color measurements were taken in a dark room inside the anaerobic chamber. The instrument was calibrated before the measurement in each group. • The mean baseline color measurements were taken prior to filling the root canal with the antibiotics (C0) and then at 1 week (C1), 2 weeks (C2), and 3 weeks (C3). The results were expressed in the CIE L*a*b* system (L* [black-white], a* [red-green] and b* [blue-yellow]). • Mean color change (ΔE) value was calculated using the following formula; […].
One-way analysis of variance (ANOVA), followed by the Tukey's HSD (with p<0.05) was used for the four microorganisms to compare: A) the MICs and MBCs among tested antibiotics, B) the difference between baseline CFUs and post-treatment CFUs for different antibiotics/scaffold formulations and, C) the changes in color among the groups.

[4] = comparison among tested antibiotics, P<0.05

## Cc1ncc([N+](=O)[O-])n1CCO [metronidazole]
[1]; against any of tested microorganisms
  inhibition zone: no inhibition zone

## O=C(O)c1cn(C2CC2)c2cc(N3CCNCC3)c(F)cc2c1=O [Ciprofloxacin, ciprofloxacin]
[1]; [4]
  Minimum Bactericidal Concentration (MBC): significantly higher
  Minimum Inhibitory Concentration (MIC): significantly higher

## CN(C)c1cc(NC(=O)CNC(C)(C)C)c(O)c2c1C[C@H]1C[C@H]3[C@H](N(C)C)C(O)=C(C(N)=O)C(=O)[C@@]3(O)C(O)=C1C2=O [Tigecycline]
[2]; 0.1 mg/mL
  samples with bacterial growth: 93.3%
[2]; 0.1 mg/ml in hydrogel scaffold
  Log10 CFUs: 3.38 ^b
[2]; 1 mg/mL
  samples with bacterial growth: 33.3%
[2]; 1 mg/ml in hydrogel scaffold
  Log10 CFUs: 0.93 ^c
[3]; 1 mg/mL, one week post-treatment
  mean color change (ΔE): 6.9±1.9
[3]; 1 mg/ml, 2 and 3 weeks post-treatment
  mean color change (ΔE): 8.4±2.0
[3]; greater than 1 mg/ml to about 10 mg/mL, after applying an inner bonding within the coronal endodontic access preparation
  tooth discoloration: no detectable discoloration
